Experimental data: patent publication US7632870B2, “Composition based on substituted 1,3-diphenylprop-2-en-1-one derivatives, preparation and uses thereof” (Genfit, priority 2002, dated 2009)
One block for each compound: values may come before it.

Key:
[1] = test system: LDL; assay: Protection against LDL oxidation by copper (conjugated diene formation); format: biochemical; settings: compound at 10^-4M
Protocol: LDL oxidation is an important alteration and plays a predominant role in the establishment and development of atherosclerosis (Jurgens, Hoff et al. 1987). […] Unless otherwise indicated, the reagents were from Sigma (St Quentin, France).
LDL were prepared according to the method described by Lebeau et al. (Lebeau, Furman et al. 2000).
The solutions of test compounds were prepared at 10^−2 M concentration in bicarbonate buffer (pH 9) and diluted in PBS to obtain final concentrations ranging from 0.1 to 100 μM for a total ethanol concentration of 1% (V/V).
Prior to oxidation, EDTA was removed from the LDL preparation by dialysis. Oxidation then took place at 30° C. by addition of 100 μl of 16.6 μM CuSO4 solution to 160 μL of LDL (125 μg protein/ml) and 20 μl of a test compound solution. The formation of dienes, the species under observation, was followed by measuring optical density at 234 nm in the samples treated with the compounds but in the presence or absence of copper. Optical density at 234 nm was measured every 10 minutes for 8 hours in a thermostated spectrophotometer (Tecan Ultra 380). The analyses were performed in triplicate. The compounds were considered to have antioxidant activity when they induced a longer lag phase and reduced the rate of oxidation and the amount of dienes formed in comparison with the control sample. […] FIGS. 1, 2 and 3 give an example of the results illustrating the antioxidant properties of compounds 2 and 5.

[2] = target: T1, PPARα (Homo sapiens, UniProt Q07869); assay: PPARα/Gal4 transactivation system in RK13 cells (luciferase reporter); format: cell-based, rabbit; settings: 24 hours
T1 construct: expressed in transfected cells; host or cells: RK13 cells
T1 sequence (Q07869 239-466 limits assumed): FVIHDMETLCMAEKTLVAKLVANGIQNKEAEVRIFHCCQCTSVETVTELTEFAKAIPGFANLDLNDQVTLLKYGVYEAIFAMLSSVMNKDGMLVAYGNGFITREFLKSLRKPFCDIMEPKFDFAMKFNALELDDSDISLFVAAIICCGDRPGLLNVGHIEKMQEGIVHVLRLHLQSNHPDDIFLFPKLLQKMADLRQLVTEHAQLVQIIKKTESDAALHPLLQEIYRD
Protocol: RK13 cells were incubated with the different compounds at concentrations of 10, 30 and 100 μM or 1, 10 and 100 μM for 24 hours. The results are expressed as the induction factor (luminescent signal relative to untreated cells) after the different treatments.
PPAR activation was tested in vitro in RK13 fibroblast cell lines by measuring the transcriptional activity of chimeras composed of the DNA binding domain of the yeast gal4 transcription factor and the ligand binding domain of the different PPARs. These latter results were then confirmed in cell lines according to the following protocols:
RK13 cells were from ECACC (Porton Down, UK) and were grown in DMEM medium supplemented with 10% (V/N) fetal calf serum, 100 U/ml penicillin (Gibco, Paisley, UK) and 2 mM L-glutamine (Gibco, Paisley, UK). The culture medium was changed every two days. Cells were kept at 37° C. in a humidified 95% air/5% CO2 atmosphere.
The plasmids pG5TkpGL3, pRL-CMV, pGal4-hPPRAα, pGal4-hPPRAγ and pGal4-φ have been described by Raspe, Madsen et al. (1999). The pGal4-mPPRAα and pGal4-hPPRAγ constructs were obtained by cloning into the pGal4-φ vector of PCR-amplified DNA fragments corresponding to the DEF domains of the human PPARα and PPRAγ nuclear receptors.
[…] At the end of the experiment, the cells were lysed (Gibco, Paisley, UK) and luciferase activity was determined with a Dual-Luciferase™ Reporter Assay System kit (Promega, Madison, Wis., USA) according to the supplier's instructions as previously described (Raspe, Madsen et al. 1999).

[3] = test system: Apo E2/E2 transgenic mice; assay: Effects on triglyceride and cholesterol metabolism in vivo
Protocol: Apo E2/E2 transgenic mice were kept on a 12-hour light/dark cycle at a constant temperature of 20±3° C. After a 1 week acclimation, the mice were weighed and divided into groups of 6 animals selected so that body weight would be uniformly distributed. The test compounds were suspended in carboxymethylcellulose and administered by intragastric gavage at the indicated doses, once a day for 7 or 8 days. Animals had access to food and water ad libitum. At the end of the experiment the animals were weighed and sacrificed under anesthesia. Blood was collected on EDTA. Plasma was prepared by centrifugation at 3000 rpm for 20 minutes. Liver samples were taken and stored frozen in liquid nitrogen for subsequent analysis.
Serum lipid concentrations (total cholesterol and free cholesterol, triglycerides and phospholipids) were determined by a colorimetric assay (Boehringer, Mannheim, Germany) according to the supplier's instructions. Serum concentrations of apolipoproteins AI, AII and CIII were determined as previously described (Raspe et al. J. Lipid Res. 40, 2099-2110, 1999, Asset G et al., Lipids, 34, 39-44, 1999).

Compound: CC(C)(Oc1ccc(C(=O)/C=C/c2cc(C(C)(C)C)c(O)c(C(C)(C)C)c2)c(O)c1)C(=O)O [Compound 2, 1-[2-hydroxy-4-carboxydimethylmethyloxyphenyl]-3-[3.5-ditertbutyl-4-hydroxyphenyl]prop-2-en-1-one]
lag phase of conjugated diene formation ([1]; FIG. 1-1, copper alone 111 minutes): more than 480 minutes | rate of conjugated diene formation ([1]; FIG. 1-2, copper alone 2): not measurable because too low | maximum amount of conjugated dienes formed ([1]; FIG. 1-3, copper alone 348): 54.4 nmol per mg of LDL | decrease in conjugated diene formation ([1]; FIG. 1-3, versus copper alone): 84%

Induction factor (luminescent signal relative to untreated cells) ([2]; 10 μM): 4 | Induction factor (luminescent signal relative to untreated cells) ([2]; 10 μM, listed as Cp4): 3.99 | Induction factor (luminescent signal relative to untreated cells) ([2]; 30 μM): 22 | Induction factor (luminescent signal relative to untreated cells) ([2]; 30 μM, listed as Cp4): 22.15 | Induction factor (luminescent signal relative to untreated cells) ([2]; 100 μM): 60 | Induction factor (luminescent signal relative to untreated cells) ([2]; 100 μM, listed as Cp4): 61.07
Compound: CC(C)(Oc1ccc(/C=C/C(=O)c2ccccc2O)cc1)C(=O)O [Compound 4, 1-[2-hydroxyhenyl]-3-[4-carboxydimethylmethyloxyphenyl]pron-2-en-1-one]

Induction factor (luminescent signal relative to untreated cells) ([2]; 10 μM): 36.48 | Induction factor (luminescent signal relative to untreated cells) ([2]; 30 μM): 50.37 | Induction factor (luminescent signal relative to untreated cells) ([2]; 100 μM, listed as Cp7): 37.84
Compound: Cc1cc(/C=C/C(=O)c2ccc(Cl)cc2O)cc(C)c1OC(C)(C)C(=O)O [Compound 7, 1-[2-hydroxy-4-chlorophenyl]-3-[3,5-dimethyl-4-carboxydimethylmethyloxyphenyl]prop-2-en-1-one]
triglycerides in large sized lipoparticles (exclusion chromatography) ([3]; gavage 200 mg/kg for 7 days, FIG. 3-3): decreased | cholesterol in large sized lipoparticles (exclusion chromatography) ([3]; gavage 200 mg/kg for 7 days, FIG. 3-4): decreased

Induction factor (luminescent signal relative to untreated cells) ([2]; 10 μM): 0.62 | Induction factor (luminescent signal relative to untreated cells) ([2]; 30 μM): 1.27 | Induction factor (luminescent signal relative to untreated cells) ([2]; 100 μM): 10 | Induction factor (luminescent signal relative to untreated cells) ([2]; 100 μM, listed as Cp8): 9.98
Compound: CC(C)(Oc1ccc(C(=O)/C=C/c2cc(Br)c(O)c(Br)c2)c(O)c1)C(=O)O [Compound 8, 1-[2-hydroxy-4-carboxydimethylmethyloxyphenyl]-3-[3.5-dibromo-4-hydroxyphenyl]prop-2-en-1-one]

Induction factor (luminescent signal relative to untreated cells) ([2]; 1 μM): 1.20 | Induction factor (luminescent signal relative to untreated cells) ([2]; 10 μM): 1.39 | Induction factor (luminescent signal relative to untreated cells) ([2]; 100 μM, listed as Cp11): 10.19
Compound: Cc1cc(/C=C/C(=O)c2ccccc2O)cc(C)c1OC(C)(C)C(=O)O [Compound 11, 1-[2-hydroxyphenyl]-3-[3,5-dimethyl-4-carboxydimethylmethyloxyphenyl]prop-2-en-1-one]

Compound: CC(C)(Oc1ccc(C(=O)/C=C/c2ccc(Cl)cc2)c(O)c1)C(=O)O [Compound 18, 1-[2-hydroxy-4-carboxydimethylmethyloxyphenyl]-3-[4-chlorophenyil] prop-2-en-1-one]
lag phase of conjugated diene formation ([1]; FIG. 1-4, copper alone 178 minutes): 241 min | rate of conjugated diene formation ([1]; FIG. 1-5, copper alone 1.6): 1.4 nmol/min/mg of LDL | maximum amount of conjugated dienes formed ([1]; FIG. 1-6, copper alone 353): 305 nmol per mg of LDL

Induction factor (luminescent signal relative to untreated cells) ([2]; 1 μM): 13.48 | Induction factor (luminescent signal relative to untreated cells) ([2]; 10 μM): 21.03 | Induction factor (luminescent signal relative to untreated cells) ([2]; 100 μM): 7.01
Compound: Cc1cc(/C=C/C(=O)c2ccc(Br)cc2O)cc(C)c1OC(C)(C)C(=O)O [Compound 25, 1-[2-hydroxy-4-bromophenyl]-3-[3,5-dimethyl-4-carboxydimethylmethyloxyphenyl]prop-2-en-1-one]

Induction factor (luminescent signal relative to untreated cells) ([2]; 1 μM): 3.77 | Induction factor (luminescent signal relative to untreated cells) ([2]; 100 μM): 1.21
Compound: COc1ccccc1C(=O)/C=C/c1cc(C)c(OC(C)(C)C(=O)O)c(C)c1 [Compound 31, 1-[2-methoxyphenyl]-3-[3,5-dimethyl-4-carboxydimethylmethyloxyphenyl]prop-2-en-1-one]

Induction factor (luminescent signal relative to untreated cells) ([2]; 1 μM): 24.55 | Induction factor (luminescent signal relative to untreated cells) ([2]; 10 μM): 27 | Induction factor (luminescent signal relative to untreated cells) ([2]; 10 μM, listed as Cp37): 27.83 | Induction factor (luminescent signal relative to untreated cells) ([2]; 100 μM): 0.02
Compound: COc1cc(Cl)ccc1C(=O)/C=C/c1cc(C)c(OC(C)(C)C(=O)O)c(C)c1 [Compound 37, 1-[2-methyloxy-4-chlorophenyl]-3-[3,5-dimethyl-4-carboxydimethylmethyloxyphenyl]prop-2-en-1-one]

Induction factor (luminescent signal relative to untreated cells) ([2]; 1 μM): 14.70 | Induction factor (luminescent signal relative to untreated cells) ([2]; 10 μM): 22 | Induction factor (luminescent signal relative to untreated cells) ([2]; 10 μM, listed as Cp38): 22.22 | Induction factor (luminescent signal relative to untreated cells) ([2]; 100 μM): 0.311
Compound: CCCCCCCc1ccc(C(=O)/C=C/c2cc(C)c(OC(C)(C)C(=O)OC(C)(C)C)c(C)c2)cc1 [Compound 38, 1-[4-heptylphenyl]-3-[3,5-dimethyl-4-tertbutyloxycarbonyldimethylmethyloxyphenyl]prop-2-en-1-one]

Induction factor (luminescent signal relative to untreated cells) ([2]; 1 μM): 34.61 | Induction factor (luminescent signal relative to untreated cells) ([2]; 10 μM): 31 | Induction factor (luminescent signal relative to untreated cells) ([2]; 10 μM, listed as Cp41): 31.18 | Induction factor (luminescent signal relative to untreated cells) ([2]; 100 μM): 3.39
Compound: Cc1cc(/C=C/C(=O)c2ccc(Br)cc2)cc(C)c1OC(C)(C)C(=O)O [Compound 41, 1-[4-bromophenyl]-3-[3,5-dimethyl-4-carboxydimethylmethyloxyphenyl]prop-2-en-1-one]
triglycerides in large sized lipoparticles (exclusion chromatography) ([3]; 50 mg/kg/day for 8 days, FIG. 3-11): decrease | cholesterol in large sized lipoparticles (exclusion chromatography) ([3]; 50 mg/kg/day for 8 days, FIG. 3-12): decrease
